Source: patent US20080311601A1, “Methods for Prediction and Prognosis of Cancer, and Monitoring Cancer Therapy” (priority 2005, published 2008)

System: VEGF
Assay: VEGF ELISA on plasma from renal cell carcinoma patients treated with Sorafenib
Format: in vivo, human
Method: Duplicate samples were used to measure the VEGF level using a VEGF ELISA (R&D Systems, Minneapolis, Minn.) per the manufacturers directions. The mean value of the duplicate measurements was determined for each patient.

CNC(=O)c1cc(Oc2ccc(NC(=O)Nc3ccc(Cl)c(C(F)(F)F)c3)cc2)ccn1 [Sorafenib]
Median VEGF (Baseline (pretreatment)): 237.4 pg/mL | Median VEGF (Cycle 1 Day 21): 301.6 pg/mL | Median VEGF (Cycle 3 Day 1): 309.0 pg/mL | change of VEGF levels from baseline (at both time points (Cycle 1 Day 21, Cycle 3 Day 1), p<<0.01, paired t-test): increase significantly from baseline
